According to US11691951B2 (Curtana Pharmaceuticals, Inc., priority 2015, dated 2023):
Where a name gives a salt, the structure may show the parent alone.

Assays:
[1] = test system: GBM8 cells (human glioblastoma neurosphere cell culture); test: GBM8 viability assay (Cell Titer Glo luminescence, 3 days); format: cell-based; settings: 72 h, 3 days incubation
How it was run: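 Patient-derived neurosphere cells (4000/well) in NeuroCult medium with rh EGF, rh bFGF and heparin, ultra-low attachment, dosed after overnight settling; 3 days at 37 °C. CellTiter-Glo luminescence versus DMSO controls gave % growth inhibition; IC50 from 4-parameter fit of serial dilutions.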

[2] = test system: GBM4 cells (human glioblastoma neurosphere cell culture); test: GBM4 viability assay (Cell Titer Glo luminescence, 3 days); format: cell-based; settings: 72 h, 3 days incubation
Experimental: Example 283: GBM4 and GBM8 Viability Assay
Cell culture medium was prepared from a NSA proliferation kit (Neurocult) and NeuroCult supplements (Stemcell Tech Cat. #05751) and treated with 20 μL of 10 μg/mL rh EGF, 10 μL of 10 μg/mL rh bFGF and 10 μL of 0.2% Heparin. In this medium, human glioblastoma cells were cultured in ultra-low attachment tissue culture flasks until 1×10^6 cells ml was achieved (GBM4 and GBM8 are distinct neurosphere cell cultures derived from these human patient tissues). GBM4 and GBM8 cells were dissociated and 10 mL of media containing 4000 human glioblastoma cells per 90 uL were transferred to an ultra-low binding 96-well plate and incubated at 37° C. overnight. On the following day, 10 μL of a 1% DMSO solution of test compound in assay medium was added to wells containing the cell suspension and the mixture incubated at 37° C. for 3 days. At this time, the plate was removed from the incubator and allowed to reach room temperature. After about 30 minutes, 50 μL of Cell Titer Glo solution was added to each well and the plate shaken for 1 minute at low speed. After 10 minutes luminescence was recorded using a Tecan Safire2 reader.
Reduction in luminescence compared to DMSO only control wells was used to determine the percentage inhibition of cell growth. IC50s were calculated using the % inhibition of luminescence for serial dilutions of compounds fitted to a 4-parameter fit within the Prism (San Diego) curve fitting program.

Row | SMILES | IC50 [1] | IC50 [2]
1 | Cc1cc(NC2CCCNC2)nc(NC(=O)Nc2ccc(Cl)c(Cl)c2)n1 (racemic) [Compound 24, (±)-2-[3-(3,4-dichlorophenyl)ureido]-6-methyl-4-(3-piperidylamino)pyrimidine hydrochloride] | < 1000 nM | < 1000 nM
2 | CCN1CCCC(Nc2cc(C)nc(NC(=O)Nc3ccc(Cl)c(Cl)c3)n2)C1 (racemic) [Compound 30, (±)-2-[3-(3,4-dichlorophenyl)ureido]-4-(1-ethyl-piperidin-3-yl-amino)-6-methylpyrimidine] | 10000 to 30000 nM | 10000 to 30000 nM
3 | CCN1CCCC(Nc2cc(C)nc(N3CCN(c4ccc(Cl)c(Cl)c4)C3=O)n2)C1 (racemic) [Compound 34, (±)-1-(3,4-dichlorophenyl)-3-[4-(1-ethyl-3-piperidylamino)-6-methyl-2-pyrimidinyl]-2-imidazolidinone] | 1000 to 10000 nM | 10000 to 30000 nM
4 | Cc1cc(N2CCOCC2)nc(NC(=O)Nc2ccc(Cl)c(Cl)c2)n1 [Compound 4, 1-(3,4-dichlorophenyl)-3-(6-methyl-4-morpholino-2-pyrimidinyl) Urea] | 1000 to 10000 nM | 10000 to 30000 nM
5 | Cc1cc(N2CCN(C)CC2)nc(NC(=O)Nc2ccc(Cl)c(Cl)c2)n1 [Compound 5, 1-(3,4-dichlorophenyl)-3-{6-methyl-4-(4-methyl-piperazin-1-yl-)pyrimidin-2-yl}-urea] | – | 10000 to 30000 nM
6 | CNCCN(C)c1cc(C)nc(NC(=O)Nc2ccc(Cl)c(Cl)c2)n1 [Compound 6, 1-(N-methyl{2-[3-(3,4-dichlorophenyl)ureido]-6-methyl-4-pyrimidinyl}amino)-2-(methylamino)ethane] | 1000 to 10000 nM | 1000 to 10000 nM
7 | Cc1cc(NCCCO)nc(NC(=O)Nc2ccc(Cl)c(Cl)c2)n1 [Compound 7, 3-{2-[3-(3,4-dichlorophenyl)ureido]-6-methyl-pyrimidin-4-yl}-aminopropanol] | < 1000 nM | < 1000 nM
8 | Cc1cc(NCCCN(C)C)nc(NC(=O)Nc2ccc(Cl)c(Cl)c2)n1 [Compound 8, 1-{2-[3-(3,4-Dichlorophenyl)ureido]-6-methyl-pyrimidin-4-yl}-amino-3-(dimethylamino)propane] | < 1000 nM | < 1000 nM
9 | Cc1cc(Nc2ccncc2)nc(NC(=O)Nc2ccc(Cl)c(Cl)c2)n1 [Compound 39, 2-[3-(3,4-dichlorophenyl)ureido]-6-methyl-4-(4-pyridylamino)-pyrimidine] | 1000 to 10000 nM | 1000 to 10000 nM
10 | CNCCCNc1cc(C)nc(NC(=O)Nc2ccc3c(c2)OCO3)n1 [Compound 289, 1-(benzo[d][1,3]dioxol-5-yl)-3-(4-methyl-6-((3-(methylamino)propyl)amino)pyrimidin-2-yl)urea] | 1000 to 10000 nM | –
11 | Cc1cc(NCCCN(C)C)nc(NC(=O)Nc2ccc3c(c2)OCCO3)n1 [Compound 291, 1-(2,3-dihydrobenzo[b][1,4]dioxin-6-yl)-3-(4-((3-(dimethylamino)propyl)amino)-6-methylpyrimidin-2-yl)urea] | < 1000 nM | –
12 | Cc1cc(NCCCN)nc(NC(=O)Nc2ccc3c(c2)OCCO3)n1 [Compound 292] | < 1000 nM | –
13 | Cc1cc(NCCN)nc(NC(=O)Nc2ccc3c(c2)OCCO3)n1 [Compound 293] | 1000 to 10000 nM | –
14 | Cc1cc(NCCN(C)C)nc(NC(=O)Nc2ccc3c(c2)OCCO3)n1 [Compound 294] | < 1000 nM | –
15 | CCNc1cc(C)nc(NC(=O)Nc2ccc3c(c2)OCCO3)n1 [Compound 295] | < 1000 nM | –
16 | CCCNc1cc(C)nc(NC(=O)Nc2ccc3c(c2)OCCO3)n1 [Compound 296] | < 1000 nM | –
17 | CNCCNc1cc(C)nc(NC(=O)Nc2ccc3c(c2)OCCO3)n1 [Compound 298, 1-(2,3-dihydrobenzo[b][1,4]dioxin-6-yl)-3-(4-methyl-6-((2-(methylamino)ethyl)amino)pyrimidin-2-yl)urea] | < 1000 nM | –
18 | CNCCCNc1cc(C)nc(NC(=O)Nc2ccc3c(c2)OCCO3)n1 [Compound 299, 1-(2,3-dihydrobenzo[b][1,4]dioxin-6-yl)-3-(4-methyl-6-((3-(methylamino)propyl)amino)pyrimidin-2-yl)urea] | 1000 to 10000 nM | –
19 | Cc1cc(NCCCN(C)C)nc(NC(=O)Nc2ccc(C(C)(C)C)cc2)n1 [Compound 301, 1-(4-(tert-butyl)phenyl)-3-(4-((3-(dimethylamino)propyl)amino)-6-methylpyrimidin-2-yl)urea] | < 1000 nM | –
20 | Cc1cc(NCCN(C)C)nc(NC(=O)Nc2ccc(C(C)(C)C)cc2)n1 [Compound 302] | 1000 to 10000 nM | –
21 | Cc1cc(NCCCN)nc(NC(=O)Nc2ccc(C(C)(C)C)cc2)n1 [Compound 303] | < 1000 nM | –
22 | Cc1cc(NCCN)nc(NC(=O)Nc2ccc(C(C)(C)C)cc2)n1 [Compound 304] | < 1000 nM | –
23 | CC(=O)NCCCNc1cc(C)nc(NC(=O)Nc2ccc3c(c2)OCO3)n1 [Compound 305, N-(3-((2-(3-(benzo[d][1,3]dioxol-5-yl)ureido)-6-methylpyrimidin-4-yl)amino)propyl)acetamide] | < 1000 nM | –
24 | CC(=O)NCCNc1cc(C)nc(NC(=O)Nc2ccc3c(c2)OCO3)n1 [Compound 306, N-{2-[2-(3-benzo[1,3]dioxol-5-yl-ureido)-6-methyl-pyrimidin-4-ylamino]-ethyl}-acetamide] | 1000 to 10000 nM | –
25 | CC(=O)NCCNc1cc(C)nc(NC(=O)Nc2ccc3c(c2)OCCO3)n1 [Compound 307, N-(2-{2-[3-(2,3-dihydro-benzo[1,4]dioxin-6-yl)-ureido]-6-methyl-pyrimidin-4-ylamino}-ethyl)-acetamide] | < 1000 nM | –
26 | CC(=O)NCCCNc1cc(C)nc(NC(=O)Nc2ccc3c(c2)OCCO3)n1 [Compound 308, N-(3-{2-[3-(2,3-dihydro-benzo[1,4]dioxin-6-yl)-ureido]-6-methyl-pyrimidin-4-ylamino}-propyl)-acetamide] | < 1000 nM | –
27 | CC(=O)NCCNc1cc(C)nc(NC(=O)Nc2ccc(C(C)(C)C)cc2)n1 [Compound 309, N-(2-{2-[3-(4-tert-butyl-phenyl)-ureido]-6-methyl-pyrimidin-4-ylamino}-ethyl)-ace mid] | < 1000 nM | –
28 | CC(=O)NCCCNc1cc(C)nc(NC(=O)Nc2ccc(C(C)(C)C)cc2)n1 [Compound 310, N-(3-{2-[3-(4-tert-butyl-phenyl)-ureido]-6-methyl-pyrimidin-4-ylamino}-propyl)-acetamide] | < 1000 nM | –
